In assay [1] the target is T1, 5-hydroxytryptamine receptor 3A (Mus musculus, UniProt P23979).
T1 sequence (P23979 whole entry): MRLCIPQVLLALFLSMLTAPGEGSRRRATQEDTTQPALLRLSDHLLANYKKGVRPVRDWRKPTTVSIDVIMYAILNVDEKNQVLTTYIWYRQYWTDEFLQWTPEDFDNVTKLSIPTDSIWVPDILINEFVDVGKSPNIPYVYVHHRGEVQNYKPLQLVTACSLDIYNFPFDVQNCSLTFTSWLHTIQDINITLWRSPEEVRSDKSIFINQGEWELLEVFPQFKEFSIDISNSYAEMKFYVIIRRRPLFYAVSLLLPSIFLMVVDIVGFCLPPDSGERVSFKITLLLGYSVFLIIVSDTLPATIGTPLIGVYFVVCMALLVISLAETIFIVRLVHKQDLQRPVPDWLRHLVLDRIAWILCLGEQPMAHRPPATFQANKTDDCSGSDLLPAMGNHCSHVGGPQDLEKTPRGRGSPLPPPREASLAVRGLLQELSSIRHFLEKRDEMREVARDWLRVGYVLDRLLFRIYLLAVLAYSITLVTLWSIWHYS

Assay [2] has as its target T2, 5-hydroxytryptamine receptor 1F (Rattus norvegicus, UniProt P30940).
T2 sequence (P30940 whole entry): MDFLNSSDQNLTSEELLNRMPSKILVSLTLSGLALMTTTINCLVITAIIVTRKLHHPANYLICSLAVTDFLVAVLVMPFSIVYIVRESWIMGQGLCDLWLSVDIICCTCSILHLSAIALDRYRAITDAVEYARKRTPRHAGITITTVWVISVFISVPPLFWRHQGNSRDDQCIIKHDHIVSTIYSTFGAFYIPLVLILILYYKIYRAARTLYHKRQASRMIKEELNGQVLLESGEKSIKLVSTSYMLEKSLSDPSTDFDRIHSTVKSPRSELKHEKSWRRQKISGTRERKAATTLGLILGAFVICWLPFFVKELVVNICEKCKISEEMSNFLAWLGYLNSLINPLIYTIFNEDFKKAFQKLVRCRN

Assay [3] addresses 5-hydroxytryptamine receptor 2B (Mus musculus, UniProt Q02152).
The target of assay [4] is 5-hydroxytryptamine receptor 1B (Rattus norvegicus, UniProt P28564).
In assay [5] the target is 5-hydroxytryptamine receptor 5B (Rattus norvegicus, UniProt P35365).
Assay [6] concerns the target 5-hydroxytryptamine receptor 7 (Mus musculus, UniProt P32304).
Assay [7] concerns the target T3, 5-hydroxytryptamine receptor 1F (Mus musculus, UniProt Q02284).
T3 sequence (Q02284 whole entry): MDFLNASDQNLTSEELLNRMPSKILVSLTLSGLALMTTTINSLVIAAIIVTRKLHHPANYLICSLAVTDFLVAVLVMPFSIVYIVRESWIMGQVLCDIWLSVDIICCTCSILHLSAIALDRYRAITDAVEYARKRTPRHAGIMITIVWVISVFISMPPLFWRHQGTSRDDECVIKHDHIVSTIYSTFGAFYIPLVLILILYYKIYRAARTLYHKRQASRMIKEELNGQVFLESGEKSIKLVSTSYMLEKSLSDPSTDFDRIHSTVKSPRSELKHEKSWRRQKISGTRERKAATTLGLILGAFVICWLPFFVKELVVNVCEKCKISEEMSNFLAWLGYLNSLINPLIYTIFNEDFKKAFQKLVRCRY

Assay [8] has as its target 5-hydroxytryptamine receptor 5A (Rattus norvegicus, UniProt P35364).
The target of assay [9] is 5-hydroxytryptamine receptor 1E (Homo sapiens, UniProt P28566).
Assay [10] deals with 5-hydroxytryptamine receptor 5A (Mus musculus, UniProt P30966).
Assay [11] deals with T4, 5-hydroxytryptamine receptor 2C (Rattus norvegicus, UniProt P08909).
T4 sequence (P08909 whole entry): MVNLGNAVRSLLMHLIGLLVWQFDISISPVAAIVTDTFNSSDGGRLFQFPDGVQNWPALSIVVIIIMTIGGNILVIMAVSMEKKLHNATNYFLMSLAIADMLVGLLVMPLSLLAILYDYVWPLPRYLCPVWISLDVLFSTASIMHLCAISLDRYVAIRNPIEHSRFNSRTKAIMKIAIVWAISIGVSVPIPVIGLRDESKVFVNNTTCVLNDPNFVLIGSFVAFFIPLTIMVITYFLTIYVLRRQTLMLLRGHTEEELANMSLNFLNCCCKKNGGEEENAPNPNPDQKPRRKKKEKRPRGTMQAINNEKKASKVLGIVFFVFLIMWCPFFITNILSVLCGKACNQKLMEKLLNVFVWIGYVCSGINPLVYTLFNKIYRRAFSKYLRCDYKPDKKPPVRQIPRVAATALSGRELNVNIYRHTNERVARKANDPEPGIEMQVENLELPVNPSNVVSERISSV

In assay [12] the target is 5-hydroxytryptamine receptor 2B (Rattus norvegicus, UniProt P30994).
For assay [13], the target named is T5, 5-hydroxytryptamine receptor 1F (Homo sapiens, UniProt P30939).
T5 sequence (P30939 whole entry): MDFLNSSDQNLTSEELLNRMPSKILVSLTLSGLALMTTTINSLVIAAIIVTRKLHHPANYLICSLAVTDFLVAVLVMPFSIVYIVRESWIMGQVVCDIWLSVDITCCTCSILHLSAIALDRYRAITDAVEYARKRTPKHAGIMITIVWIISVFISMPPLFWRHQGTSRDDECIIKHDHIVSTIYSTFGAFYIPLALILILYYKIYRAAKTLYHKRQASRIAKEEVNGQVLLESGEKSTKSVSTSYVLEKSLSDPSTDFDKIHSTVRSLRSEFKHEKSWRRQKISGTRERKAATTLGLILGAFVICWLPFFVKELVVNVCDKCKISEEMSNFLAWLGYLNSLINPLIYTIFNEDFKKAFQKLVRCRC

Assay [14] has as its target 5-hydroxytryptamine receptor 4 (Cavia porcellus, UniProt O70528).
Assay [15] has as its target 5-hydroxytryptamine receptor 1D (Rattus norvegicus, UniProt P28565).
Assay [16] addresses 5-hydroxytryptamine receptor 1D (Canis lupus familiaris, UniProt P11614).
Assay [17] addresses 5-hydroxytryptamine receptor 2A (Rattus norvegicus, UniProt P14842).
Assay [18] has as its target 5-hydroxytryptamine receptor 1B (Mus musculus, UniProt P28334).

This note sets out measurements from BindingDB's records for doi:10.1016/0028-3908(94)90059-0 (University of Alberta, 1994).

“And” between values parts separate entries of the source, which are not always exact repeats. Equal values may be shown once.

5-hydroxytryptamine receptor 4, sequence (O70528 whole entry): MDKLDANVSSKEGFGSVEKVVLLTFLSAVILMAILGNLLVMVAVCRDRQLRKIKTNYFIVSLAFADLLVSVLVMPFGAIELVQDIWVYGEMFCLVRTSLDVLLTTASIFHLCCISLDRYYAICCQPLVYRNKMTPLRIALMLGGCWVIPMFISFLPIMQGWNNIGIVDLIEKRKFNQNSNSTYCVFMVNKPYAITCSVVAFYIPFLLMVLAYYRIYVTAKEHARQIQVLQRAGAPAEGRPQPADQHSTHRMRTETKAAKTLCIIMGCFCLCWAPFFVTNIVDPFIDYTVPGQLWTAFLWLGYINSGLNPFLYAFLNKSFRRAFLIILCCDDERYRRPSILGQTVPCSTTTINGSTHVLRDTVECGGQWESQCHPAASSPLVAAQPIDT
5-hydroxytryptamine receptor 7, sequence (P32304 whole entry): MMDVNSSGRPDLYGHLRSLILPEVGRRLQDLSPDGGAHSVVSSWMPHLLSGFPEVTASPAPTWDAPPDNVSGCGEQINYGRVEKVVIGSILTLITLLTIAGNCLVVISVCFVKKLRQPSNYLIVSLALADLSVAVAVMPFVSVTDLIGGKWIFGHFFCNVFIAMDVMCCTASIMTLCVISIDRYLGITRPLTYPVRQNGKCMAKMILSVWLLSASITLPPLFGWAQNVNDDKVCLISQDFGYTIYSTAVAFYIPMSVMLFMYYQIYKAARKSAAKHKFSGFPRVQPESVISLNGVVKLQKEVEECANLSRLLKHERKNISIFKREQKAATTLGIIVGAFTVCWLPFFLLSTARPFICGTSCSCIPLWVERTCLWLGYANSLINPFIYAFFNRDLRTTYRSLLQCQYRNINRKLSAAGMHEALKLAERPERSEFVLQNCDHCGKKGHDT
5-hydroxytryptamine receptor 5A (Rattus norvegicus, UniProt P35364), sequence (P35364 whole entry): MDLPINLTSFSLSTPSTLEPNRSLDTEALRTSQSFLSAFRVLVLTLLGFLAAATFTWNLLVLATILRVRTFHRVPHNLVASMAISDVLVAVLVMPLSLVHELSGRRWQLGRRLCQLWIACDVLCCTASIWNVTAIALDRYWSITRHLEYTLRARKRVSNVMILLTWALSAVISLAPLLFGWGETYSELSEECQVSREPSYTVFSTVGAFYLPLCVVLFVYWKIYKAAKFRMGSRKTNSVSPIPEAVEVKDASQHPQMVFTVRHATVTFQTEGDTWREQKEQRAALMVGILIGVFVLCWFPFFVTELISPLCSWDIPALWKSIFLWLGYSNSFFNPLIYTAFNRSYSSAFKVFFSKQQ
5-hydroxytryptamine receptor 1B (Rattus norvegicus, UniProt P28564), sequence (P28564 whole entry): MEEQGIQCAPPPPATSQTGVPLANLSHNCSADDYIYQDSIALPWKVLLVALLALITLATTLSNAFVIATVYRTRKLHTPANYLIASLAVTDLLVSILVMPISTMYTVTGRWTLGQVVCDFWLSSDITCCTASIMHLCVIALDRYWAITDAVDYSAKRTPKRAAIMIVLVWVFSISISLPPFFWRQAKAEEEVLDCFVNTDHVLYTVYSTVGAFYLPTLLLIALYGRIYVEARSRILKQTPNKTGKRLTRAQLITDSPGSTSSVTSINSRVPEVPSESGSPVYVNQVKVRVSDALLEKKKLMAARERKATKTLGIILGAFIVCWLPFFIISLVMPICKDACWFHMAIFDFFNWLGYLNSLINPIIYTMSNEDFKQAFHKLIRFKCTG
5-hydroxytryptamine receptor 5A (Mus musculus, UniProt P30966), sequence (P30966 whole entry): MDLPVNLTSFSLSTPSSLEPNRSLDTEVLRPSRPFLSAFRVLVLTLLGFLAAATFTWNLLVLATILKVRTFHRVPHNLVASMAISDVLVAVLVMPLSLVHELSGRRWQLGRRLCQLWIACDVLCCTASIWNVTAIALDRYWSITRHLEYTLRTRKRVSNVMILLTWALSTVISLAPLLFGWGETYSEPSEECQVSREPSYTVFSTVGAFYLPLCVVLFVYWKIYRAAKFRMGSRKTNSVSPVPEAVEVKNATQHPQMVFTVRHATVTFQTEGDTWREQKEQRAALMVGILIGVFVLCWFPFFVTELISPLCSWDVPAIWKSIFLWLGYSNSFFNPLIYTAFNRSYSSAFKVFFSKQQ
5-hydroxytryptamine receptor 2B (Mus musculus, UniProt Q02152), sequence (Q02152 whole entry): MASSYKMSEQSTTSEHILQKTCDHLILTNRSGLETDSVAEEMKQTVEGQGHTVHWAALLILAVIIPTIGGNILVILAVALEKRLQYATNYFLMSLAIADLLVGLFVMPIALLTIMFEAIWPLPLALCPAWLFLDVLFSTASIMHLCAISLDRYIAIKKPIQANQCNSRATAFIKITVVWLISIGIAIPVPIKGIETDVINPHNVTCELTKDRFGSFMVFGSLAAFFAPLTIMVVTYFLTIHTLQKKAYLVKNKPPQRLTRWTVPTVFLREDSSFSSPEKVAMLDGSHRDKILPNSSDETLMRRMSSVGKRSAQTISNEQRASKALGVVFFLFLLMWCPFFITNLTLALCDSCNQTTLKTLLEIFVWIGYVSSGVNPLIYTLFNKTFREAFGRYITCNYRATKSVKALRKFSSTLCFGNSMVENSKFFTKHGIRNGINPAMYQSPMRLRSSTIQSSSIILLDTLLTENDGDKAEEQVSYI
5-hydroxytryptamine receptor 1E, sequence (P28566 whole entry): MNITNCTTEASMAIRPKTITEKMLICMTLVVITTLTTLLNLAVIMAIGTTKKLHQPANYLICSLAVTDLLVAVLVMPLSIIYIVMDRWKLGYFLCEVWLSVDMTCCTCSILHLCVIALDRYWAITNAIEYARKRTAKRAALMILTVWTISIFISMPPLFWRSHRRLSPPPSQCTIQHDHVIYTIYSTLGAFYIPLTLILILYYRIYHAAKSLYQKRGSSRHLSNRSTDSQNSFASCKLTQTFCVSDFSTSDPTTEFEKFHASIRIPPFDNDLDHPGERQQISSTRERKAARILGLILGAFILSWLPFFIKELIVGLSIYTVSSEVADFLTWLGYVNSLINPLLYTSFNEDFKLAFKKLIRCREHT
5-hydroxytryptamine receptor 1B (Mus musculus, UniProt P28334), sequence (P28334 whole entry): as the sequence (P28564 whole entry) above, with T15A, A23T, D33G, D152E, V192M, V270A, E272D, T385A counted along it
5-hydroxytryptamine receptor 1D (Canis lupus familiaris, UniProt P11614), sequence (P11614 whole entry): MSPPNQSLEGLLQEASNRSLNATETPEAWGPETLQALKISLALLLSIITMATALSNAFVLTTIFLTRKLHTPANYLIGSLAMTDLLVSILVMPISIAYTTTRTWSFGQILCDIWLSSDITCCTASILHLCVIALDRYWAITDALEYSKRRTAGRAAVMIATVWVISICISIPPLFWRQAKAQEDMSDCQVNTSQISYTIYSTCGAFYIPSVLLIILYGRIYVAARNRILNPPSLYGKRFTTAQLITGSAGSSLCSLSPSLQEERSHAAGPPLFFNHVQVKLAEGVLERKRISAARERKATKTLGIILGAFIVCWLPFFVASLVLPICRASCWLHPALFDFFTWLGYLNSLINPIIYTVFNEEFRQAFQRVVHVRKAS
5-hydroxytryptamine receptor 5B, sequence (P35365 whole entry): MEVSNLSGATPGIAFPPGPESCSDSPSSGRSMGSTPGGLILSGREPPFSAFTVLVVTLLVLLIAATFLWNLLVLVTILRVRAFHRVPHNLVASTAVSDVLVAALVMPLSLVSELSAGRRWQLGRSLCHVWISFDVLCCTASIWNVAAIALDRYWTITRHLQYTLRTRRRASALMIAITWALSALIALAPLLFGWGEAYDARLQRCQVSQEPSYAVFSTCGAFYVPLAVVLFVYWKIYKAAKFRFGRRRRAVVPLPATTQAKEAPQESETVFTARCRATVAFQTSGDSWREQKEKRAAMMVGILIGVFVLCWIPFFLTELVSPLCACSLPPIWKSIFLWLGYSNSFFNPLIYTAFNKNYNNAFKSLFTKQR
5-hydroxytryptamine receptor 1D (Rattus norvegicus, UniProt P28565), sequence (P28565 whole entry): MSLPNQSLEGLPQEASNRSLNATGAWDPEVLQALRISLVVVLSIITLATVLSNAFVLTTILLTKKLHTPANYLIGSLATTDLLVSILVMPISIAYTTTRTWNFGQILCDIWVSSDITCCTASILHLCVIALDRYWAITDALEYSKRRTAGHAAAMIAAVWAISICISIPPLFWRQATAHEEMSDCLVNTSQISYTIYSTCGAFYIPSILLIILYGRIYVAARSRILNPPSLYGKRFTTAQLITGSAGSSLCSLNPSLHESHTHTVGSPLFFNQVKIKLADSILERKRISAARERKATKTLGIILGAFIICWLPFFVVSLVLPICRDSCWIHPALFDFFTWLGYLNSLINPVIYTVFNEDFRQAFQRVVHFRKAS
5-hydroxytryptamine receptor 2B (Rattus norvegicus, UniProt P30994), sequence (P30994 whole entry): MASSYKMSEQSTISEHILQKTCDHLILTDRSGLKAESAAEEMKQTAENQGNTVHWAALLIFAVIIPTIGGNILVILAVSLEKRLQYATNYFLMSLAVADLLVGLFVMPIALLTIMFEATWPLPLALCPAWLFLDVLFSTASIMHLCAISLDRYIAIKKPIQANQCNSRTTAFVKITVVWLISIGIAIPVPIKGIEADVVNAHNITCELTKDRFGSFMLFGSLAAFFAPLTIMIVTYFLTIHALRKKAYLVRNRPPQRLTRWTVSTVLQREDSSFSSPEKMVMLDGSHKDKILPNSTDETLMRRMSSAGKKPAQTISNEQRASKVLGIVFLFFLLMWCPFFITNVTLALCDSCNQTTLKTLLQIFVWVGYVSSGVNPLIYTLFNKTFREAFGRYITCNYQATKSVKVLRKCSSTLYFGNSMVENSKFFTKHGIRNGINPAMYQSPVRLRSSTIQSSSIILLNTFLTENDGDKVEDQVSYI

As for `CN1C2CCC1CC(OC(=O)c1c[nH]c3ccccc13)C2` (stereo not drawn), the Ki (usually a measure of affinity in units of concentration, obtained from inhibition or displacement) in [1] worked out at 1.99 nM.
`CC[C@@H](CO)NC(=O)[C@@H]1C=C2c3cccc4c3c(cn4C)C[C@H]2N(C)C1`: the Ki in assay [1] was more than 10000 nM; in assay [2] it was 13.5 nM; in [3], 12.6 nM; in [4] it was 1820 nM and 437 nM; in assay [5] it was 1000 nM; in [6], 12.6 nM. The Ki in assay [7] is 6.3 nM; in [8], 195 nM; in [9], 324 nM and 219 nM; in [10], 79.4 nM.
As for `c1ccc2nc(N3CCNCC3)ccc2c1` [2-Piperazin-1-yl-quinoline (Quipazine)], the figures for the Ki in [11] and in [3] were 257 nM and 6610 nM, respectively.
As to `O=C(c1ccc(F)cc1)C1CCN(CCn2c(=O)[nH]c3ccccc3c2=O)CC1` [3-(2-{4-[(4-fluorophenyl)carbonyl]piperidin-1-yl}ethyl)-1,2,3,4-tetrahydroquinazoline-2,4-dione], the Ki in [12] was 3550 nM; in assay [11], 47.9 nM and 20.9 nM; in assay [3], 204 nM; in assay [13] it was 1.25 nM.
In the case of `COc1cc(N)c(Cl)cc1C(=O)N[C@H]1CN2CCC1CC2` [4-Amino-N-(R)-1-aza-bicyclo[2.2.2]oct-3-yl-5-chloro-2-methoxy-benzamide], the Ki in [14] is 251 nM and 200 nM.
Consider `CN1C[C@H](C(=O)N[C@]2(C)O[C@@]3(O)[C@@H]4CCCN4C(=O)[C@H](Cc4ccccc4)N3C2=O)C=C2c3cccc4[nH]cc(c34)C[C@H]21` [12'-hydroxy-2'-methyl-5'alpha-(phenylmethyl)ergotaman-3',6',18-trione], for which the Ki amounted to 52.5 nM in [2]; 0.03 nM in [4]; 15.8 nM in assay [5]; 50.1 nM in assay [6]; 50.1 nM in assay [7]; 0.07 nM in assay [15]. For the same compound, the Ki in assay [16] was 1.94 nM; in assay [9], 575 nM and 537 nM; in [10], 6.3 nM.
For `CC(C)n1c(=O)n(C(=O)NC2CC3CCC(C2)N3C)c2ccccc21` (stereo not drawn) [BIMU 8], in assay [14], the Ki is 25.1 nM and 12.6 nM.
Consider `CN(C)CCCSc1ccccc1NC(=O)/C=C/c1ccccc1` [CINANSERIN], for which affinity in assay [17] was put at a Ki of 6.02 nM.
`Clc1cncc(N2CCNCC2)n1` [L-630,571] had a Ki in assay [11] of 339 nM.
`CN1C2CCC1CC(OC(=O)c1cc(Cl)cc(Cl)c1)C2` (stereo not drawn) [MDL 72222] showed a Ki in [1] of 87.1 nM.
Same read-out and setting: for `COc1cc2c3cc1Oc1cc(ccc1O)C[C@@H]1c4c(cc(OC)c(O)c4Oc4ccc(cc4)C[C@@H]3N(C)CC2)CC[N+]1(C)C` [Tubocurarine,d] the value was 8.7 nM.
Regarding `NCCc1c[nH]c2ccc(O)cc12` [[3H]-5-HT], the Ki in assay [2] was found to be 67.6 nM; in [6] it was 5.01 nM; in assay [7], 126 nM; in assay [16], 15.8 nM; in [8], 240 nM; in assay [18], 39.8 nM.
As for `NCCc1c[nH]c2ccc(C(N)=O)cc12` [[3H]-5-carboxamidotryptamine], the Ki in assay [12] was 151 nM; in assay [2] it was 2450 nM; in assay [14], more than 10000 nM; in [6], 1 nM; in [7] it was 3160 nM; in [15], 0.37 nM. Besides, the Ki was 12.6 nM in [8]; 7080 nM and 3310 nM in assay [9]; 10 nM in assay [18]; 15.8 nM and 12.6 nM in assay [10].
